The record followed here is ChEMBL document CHEMBL1123567, “2-Oxo-1,8-naphthyridine-3-carboxylic acid derivatives with potent gastric antisecretory properties” (1987).

In assay [1] the test system is Rattus norvegicus. Kind of assay: Antisecretory activity at 32 mg/kg dose administered intraduodenally in the pylorus-ligated rat. The format is functional. To be noted: route intraduodenal.
Assay [2] relates to Canis familiaris. Kind of assay: Antisecretory activity (total acid output) at 4 mg/kg dose administered (po) in Gastric pouch dog was determined by dose related inhibition of food stimulated gastric acid secretion. The format is functional, Canis lupus familiaris, Stomach. The arrangement: scale not given: the % may be the effect or the level left.
For assay [3], the system named is Canis familiaris. Kind of assay: Antisecretory activity (total acid output) at 2 mg/kg dose administered (po) in Gastric pouch dog was determined by dose related inhibition of food stimulated gastric acid secretion. The arrangement: scale not given: the % may be the effect or the level left. The format is functional, Canis lupus familiaris, Stomach.
Assay [4] deals with Rattus norvegicus. The experiment in a line: Antisecretory activity (total acid output) at 16 mg/kg dose administered intraduodenally in the pylorus-ligated rat. In kind it is functional. Particulars: route intraduodenal.
Assay [5] relates to Rattus norvegicus. Kind of assay: Antisecretory activity (total acid output) at 2 mg/kg dose administered intraduodenally in the pylorus-ligated rat. In kind it is functional. To be noted: route intraduodenal.
In assay [6] the test system is Rattus norvegicus. The experiment in a line: Antisecretory activity (total acid output) at 4 mg/kg dose administered intraduodenally in the pylorus-ligated rat. To be noted: route intraduodenal. The format is functional.
Assay [7] deals with Rattus norvegicus. The experiment in a line: Antisecretory activity (total acid output) at 8 mg/kg dose administered intraduodenally in the pylorus-ligated rat. The format is functional. Particulars: route intraduodenal.
The test system of assay [8] is Canis familiaris. The experiment in a line: Antisecretory activity (total acid output) at 16 mg/kg dose administered (po) in Gastric pouch dog was determined by dose related inhibition of food stimulated gastric acid secretion. The format is functional, Canis lupus familiaris, Stomach. The arrangement: scale not given: the % may be the effect or the level left.
Assay [9] concerns Rattus norvegicus. Kind of assay: Antisecretory activity (total acid output) at 0.5 mg/kg dose administered intraduodenally in the pylorus-ligated rat. The format is functional. To be noted: route intraduodenal.
Assay [10] concerns Canis familiaris. Kind of assay: Antisecretory activity (total acid output) at 8 mg/kg dose administered (po) in Gastric pouch dog was determined by dose related inhibition of food stimulated gastric acid secretion. Also noted: scale not given: the % may be the effect or the level left. The format is functional, Canis lupus familiaris, Stomach.

`CCn1c(=O)c(C(=O)NN)c(N)c2cccnc21` yielded a Control with Rattus norvegicus [1] of 29%.
The same measure, in the same setting: the figure for `CCn1c(=O)c(C(N)=O)c(N)c2ccc(C)nc21` is 55%.
On the same count and under the same terms, the figure for `CCn1c(=O)c(C(=O)O)c(N)c2cc(NC(C)=O)cnc21` is 82%; for `CCCn1c(=O)c(C(=O)OCC)c(N)c2cccnc21` it is 30%; for `CCOC(=O)c1c(Cl)c2ccc(C)nc2n(CC)c1=O` it is 66%.
Same read-out and setting: the figure for `CCOC(=O)c1c(O)c2cccnc2n(CC)c1=O` is 63%.
Take `CCOC(=O)c1c(N2CCCC2)c2cccnc2n(C)c1=O`: the Control with Rattus norvegicus [1] is listed as 51%.
`CCOC(=O)c1c(N)c2cccnc2n(CC(C)C)c1=O` displayed a Control in the assay with Rattus norvegicus [1] of 28%.
In the assay on Rattus norvegicus [1], `CCn1c(=O)c(C(=O)O)c(N)c2cccnc21` showed a Control of 37%.
As to `CCn1c(=O)c(C(N)=O)c(N)c2cccnc21`, the Control in the assay on Rattus norvegicus [1] amounted to 19%.
Still for that read-out and setting: for `CCOC(=O)c1c(N)c2cccnc2n(C2CCCCC2)c1=O` the value was 48%.
In the case of `CCOC(=O)c1c(N2CCNCC2)c2ccc(C)nc2n(CC)c1=O`, the Control in the assay on Rattus norvegicus [1] turned out to be 10%.
Take `C=CCn1c(=O)c(C(=O)O)c(NC(=O)CCl)c2cccnc21`: the Control in the assay on Rattus norvegicus [1] is reported as 63%.
For the compound `CCOC(=O)c1c(N2CCN(C)CC2)c2ccc(C)nc2n(CC)c1=O`, the Control amounted to 40% in the assay on Canis familiaris [2]; 95% with Canis familiaris [3]; 28% in the assay on Rattus norvegicus [4]; 85% in the assay with Rattus norvegicus [5]; 66% with Rattus norvegicus [6]; 45% in the assay with Rattus norvegicus [7]. Besides, the Control with Rattus norvegicus [1] stood at 7.5%.
`CCOC(=O)c1c(O)nc2nc(C)ccc2c1N1CCN(C)CC1` displayed a Control in the assay with Rattus norvegicus [1] of 34%.
As for `CCOC(=O)c1c(NCCCN(C)C)c2ccc(C)nc2n(CC)c1=O`, the Control in the assay with Rattus norvegicus [1] was determined as 77%.
In turn, `CCNc1c(C(=O)OCC)c(=O)n(CC)c2nc(C)ccc12` had a Control in the assay with Rattus norvegicus [1] of 36%.
`CCn1c(=O)c(C#N)c(N)c2ccc(C)nc21`: in the assay with Rattus norvegicus [1], the Control was determined as 62%.
Turning to `CCOC(=O)c1c(N)c2ccc(C)nc2n(CCO)c1=O`, the Control in the assay on Rattus norvegicus [1] was 74%.
`CCOC(=O)c1c(N(C(C)=O)C(C)=O)c2cccnc2n(CC)c1=O` showed a Control in the assay on Rattus norvegicus [1] of 59%.
The same measure, in the same setting: for `CCN(CC)CCNC(=O)c1c(N)c2cccnc2n(CC)c1=O` the value was 56%; for `CCOC(=O)c1c(N2CCCC2)c2ccc(C)nc2n(CC)c1=O`, 29%; for `CCOC(=O)c1c(N(C)CCO)c2ccc(C)nc2n(CC)c1=O`, 59%.
Regarding `CCn1c(=O)c(C(=O)O)c(N2CCN(C)CC2)c2ccc(C)nc21`, the Control in the assay with Rattus norvegicus [1] was determined as 89%.
On to `CCC(C)OC(=O)c1c(N)c2cccnc2n(CC)c1=O` (stereo unspecified), for which, in the assay on Rattus norvegicus [1], the Control worked out at 42%.
`CCN(CC)CCOC(=O)c1c(N)c2cccnc2n(CC)c1=O` returned a Control with Rattus norvegicus [1] of 40%.
In the assay on Rattus norvegicus [1], `CCOC(=O)c1c(NC(C)=O)c2cccnc2n(CC)c1=O` came in with a Control of 67%.
As to `CCOC(=O)c1c(N2CCN(C(=O)OCC)CC2)c2ccc(C)nc2n(CC)c1=O`, the Control in the assay on Rattus norvegicus [1] is recorded as 70%.
`CCOC(=O)c1c(N2CCOCC2)c2ccc(C)nc2n(CC)c1=O`: in the assay on Rattus norvegicus [1], the Control is 22%.
In the assay with Rattus norvegicus [1], `CCn1c(=O)c(C#N)c(N2CCCC2)c2ccc(C)nc21` displayed a Control of 67%.
As for `CCOC(=O)c1c(O)c2ccc(C)nc2n(C)c1=O`, the Control in the assay on Rattus norvegicus [1] is 51%.
Same read-out and setting: the figure for `CCOC(=O)c1c(N)c2cccnc2n(C)c1=O` is 21%; for `CCOC(=O)c1c(O)nc2ncccc2c1N` it is 44%.
Still for that read-out and setting: for `C=CCn1c(=O)c(C(=O)OCC)c(N2CCCC2)c2ccc(C)nc21` the value was 59%; for `Nc1c(C(=O)O)c(O)nc2ncccc12`, 72%.
On the same count and under the same terms, for `CCOC(=O)c1c(N(C(C)=O)C(C)=O)c2c(C)cc(C)nc2n(CC)c1=O` the value was 76%.
The compound `CCOC(=O)c1c(N2CCN(C)CC2)c2cccnc2n(CC)c1=O` displayed a Control in the assay with Rattus norvegicus [1] of 17%.
Still for that read-out and setting: for `CCOC(=O)c1c(N)c2c(C)cc(C)nc2n(CC)c1=O` the value was 50%; for `CCOC(=O)c1c(OCC)c2ccc(C)nc2n(CC)c1=O`, 46%; for `CCOC(=O)c1c(O)nc2nc(C)cc(C)c2c1N`, 89%.
In the case of `C=CCn1c(=O)c(C(=O)OCC)c(N)c2cccnc21`, the Control in the assay on Rattus norvegicus [1] amounted to 22%.
The same measure, in the same setting: the figure for `CCOC(=O)c1c(N2CCN(C)CC2)c2ccc(C)nc2n(C)c1=O` is 9%; for `CCOC(=O)C(=O)Nc1c(C(=O)OCC)c(=O)n(CC)c2ncccc12` it is 28%.
Consider `CCOC(=O)c1c(N)c2cccnc2n(CC)c1=O`, for which the Control was determined as 62% in the assay on Canis familiaris [8]; 92% in the assay on Canis familiaris [2]; 17% in the assay with Rattus norvegicus [4]; 58% in the assay on Rattus norvegicus [5]; 55% with Rattus norvegicus [6]; 100% with Rattus norvegicus [9]. For the same compound, the Control in the assay on Canis familiaris [10] came out at 97%; in the assay on Rattus norvegicus [7], 35%; with Rattus norvegicus [1], 18%.
With `C=CCn1c(=O)c(C(=O)OCC)c(O)c2ccc(C)nc21`, in the assay with Rattus norvegicus [1], the Control is 73%.
`CCNC(=O)c1c(N)c2cccnc2n(CC)c1=O` gave a Control with Rattus norvegicus [1] of 28%.
Same read-out and setting: for `CCNc1cc(C)c2c(N)c(C(=O)OCC)c(=O)n(CC)c2n1` the value was 58%; for `CCOC(=O)c1c(N2CCCC2)c2ccc(C)nc2n(C)c1=O`, 32%; for `CCOC(=O)c1c(O)c2ccc(C)nc2n(CC)c1=O`, 53%.
Same read-out and setting: for `CCCCOC(=O)c1c(N)c2cccnc2n(CC)c1=O` the value was 26%; for `CCOC(=O)c1c(NC(=O)C(F)(F)F)c2cccnc2n(CC)c1=O`, 22%; for `CCOC(=O)c1c(N2CC[N+](C)(C)CC2)c2ccc(C)nc2n(CC)c1=O.[Cl-]`, 123%.
`CCOC(=O)c1c(N2CCN(C)CC2)c2cccnc2n(C)c1=O` returned a Control with Rattus norvegicus [1] of 25%.
Same read-out and setting: the figure for `CCOC(=O)c1c(N(CC)CC)c2ccc(C)nc2n(CC)c1=O` is 55%; for `CCOC(=O)c1c(N)c2ccc(C)nc2n(CC)c1=O` it is 33%.
Same read-out and setting: the figure for `CCOC(=O)c1c(NCC(O)c2ccccc2)c2ccc(C)nc2n(CC)c1=O` (stereo unspecified) is 111%.
On to `CN/C(=N\CCSCc1nc[nH]c1C)NC#N` [CIMETIDINE], for which the “Inhibition of gastric acid secretion (% relative to control)” value in the assay on Rattus norvegicus [1] was 80%.
